Read-outs that look alike come from different tables or passages of the source.
Key:
[1] = target: T1, HiBiT-tagged IKZF1 (Homo sapiens, UniProt Q13422+Q96SW2); experiment: Degradation assay for IKZF1 (HiBiT tag bioluminescence assay); assay type: cell-based; conditions: HT-1080 IKZF1 HiBiT reporter cells; for DC50: read-out: HiBiT IKZF1: DC50
T1 construct: expressed in transfected cells; host or cells: HT-1080 (ATCC CCL-121), lentiviral transduction
Experimental: (§1) About 10,000 cells in complete DMEM cell culture media were seeded per well. Assay plates were incubated at 37° C. with 5% CO2 for hours, followed by the assessment of IKZF1 or SALL4 degradation using the Nano-Glo HiBiT Lytic Detection Reagent (Cat #N3050, Promega) according to the manufacturer's instruction. Luminescence was then measured with an EnVision plate reader (PerkinElmer) or a PHERAstar plate reader (BMG Labtech). All IKZF1 or SALL4 degradation curves were processed using Collaborative Drug Discovery Vault softwares. IKZF1 or SALL4 levels in compound-treated wells were normalized to that of DMSO control and expressed as Percent of Control (PoC, y). A four Parameter Logistic Model was used to determine the compound's EC50 and DC50, using the following equation:
(§2) A=Ymin (lowest IKZF1 or SALL4 level normalized to DMSO control in response to compound treatment, as determined by curve fit)
(§3) B=Ymax (IKZF1 or SALL4 level in DMSO control)
(§4) C=EC50 half degradation concentration
(§5) EC50=the concentration of compound when y=(Ymax−Ymin)/2
(§6) DC50=test sample concentration when IKZF1 or SALL4 readings y=50% DMSO-treated samples
(§7) y=IKZF1 or SALL4 readings after test sample treatment (normalized to IKZF1 or SALL4 readings in DMSO-treated samples)
(§8) Dmax represents the maximum percentage of IKZF1 or SALL4 protein degradation induced by compound treatment.

[2] = target: T2, HiBiT-tagged SALL4 (Homo sapiens, UniProt Q96SW2+Q9UJQ4); experiment: Degradation assay for SALL4 (HiBiT tag bioluminescence assay); assay type: cell-based; conditions: HT-1080 SALL4 HiBiT reporter cells; for DC50: read-out: HiBiT SALL4: DC50
T2 construct: expressed in transfected cells; host or cells: HT-1080 (ATCC CCL-121), lentiviral transduction
T2 sequence (Q9UJQ4 whole entry): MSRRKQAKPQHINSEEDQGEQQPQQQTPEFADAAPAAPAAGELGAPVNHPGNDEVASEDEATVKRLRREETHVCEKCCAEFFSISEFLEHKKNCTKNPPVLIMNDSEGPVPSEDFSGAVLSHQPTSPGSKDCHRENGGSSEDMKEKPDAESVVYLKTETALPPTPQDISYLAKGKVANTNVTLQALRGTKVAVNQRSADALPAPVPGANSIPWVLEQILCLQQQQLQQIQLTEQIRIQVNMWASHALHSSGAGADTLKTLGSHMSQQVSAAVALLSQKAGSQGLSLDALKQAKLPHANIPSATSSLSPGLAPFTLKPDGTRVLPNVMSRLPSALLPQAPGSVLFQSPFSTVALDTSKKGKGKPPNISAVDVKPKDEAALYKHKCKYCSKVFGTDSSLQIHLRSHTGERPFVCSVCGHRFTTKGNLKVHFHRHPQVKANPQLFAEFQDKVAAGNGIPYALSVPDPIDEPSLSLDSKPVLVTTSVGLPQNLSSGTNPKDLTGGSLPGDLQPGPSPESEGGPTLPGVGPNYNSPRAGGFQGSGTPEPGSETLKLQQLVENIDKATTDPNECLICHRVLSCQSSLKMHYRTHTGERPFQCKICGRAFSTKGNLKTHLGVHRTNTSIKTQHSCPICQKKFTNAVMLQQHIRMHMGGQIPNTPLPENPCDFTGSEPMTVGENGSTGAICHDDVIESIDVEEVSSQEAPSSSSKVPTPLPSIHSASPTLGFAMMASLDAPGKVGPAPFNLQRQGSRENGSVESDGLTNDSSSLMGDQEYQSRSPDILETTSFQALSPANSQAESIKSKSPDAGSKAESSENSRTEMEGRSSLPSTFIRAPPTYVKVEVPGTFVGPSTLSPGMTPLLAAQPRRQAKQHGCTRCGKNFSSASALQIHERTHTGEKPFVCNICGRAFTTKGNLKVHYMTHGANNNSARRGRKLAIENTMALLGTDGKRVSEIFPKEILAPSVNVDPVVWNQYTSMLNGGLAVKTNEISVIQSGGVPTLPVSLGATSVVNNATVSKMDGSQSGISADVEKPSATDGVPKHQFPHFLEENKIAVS
T2 sequence (Q96SW2 whole entry): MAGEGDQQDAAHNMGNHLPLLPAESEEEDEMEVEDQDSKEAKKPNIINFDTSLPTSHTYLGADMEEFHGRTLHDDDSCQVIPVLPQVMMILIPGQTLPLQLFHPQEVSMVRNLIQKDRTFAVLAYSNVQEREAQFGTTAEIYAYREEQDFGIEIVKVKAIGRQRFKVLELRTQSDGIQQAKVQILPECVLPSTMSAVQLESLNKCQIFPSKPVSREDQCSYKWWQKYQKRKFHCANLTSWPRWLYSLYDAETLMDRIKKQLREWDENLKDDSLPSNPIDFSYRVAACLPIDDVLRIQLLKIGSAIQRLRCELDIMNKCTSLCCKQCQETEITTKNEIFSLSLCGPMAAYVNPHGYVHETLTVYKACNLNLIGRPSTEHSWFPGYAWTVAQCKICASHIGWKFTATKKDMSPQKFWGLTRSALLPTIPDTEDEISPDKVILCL
T2 sequence (Q16531 whole entry partner): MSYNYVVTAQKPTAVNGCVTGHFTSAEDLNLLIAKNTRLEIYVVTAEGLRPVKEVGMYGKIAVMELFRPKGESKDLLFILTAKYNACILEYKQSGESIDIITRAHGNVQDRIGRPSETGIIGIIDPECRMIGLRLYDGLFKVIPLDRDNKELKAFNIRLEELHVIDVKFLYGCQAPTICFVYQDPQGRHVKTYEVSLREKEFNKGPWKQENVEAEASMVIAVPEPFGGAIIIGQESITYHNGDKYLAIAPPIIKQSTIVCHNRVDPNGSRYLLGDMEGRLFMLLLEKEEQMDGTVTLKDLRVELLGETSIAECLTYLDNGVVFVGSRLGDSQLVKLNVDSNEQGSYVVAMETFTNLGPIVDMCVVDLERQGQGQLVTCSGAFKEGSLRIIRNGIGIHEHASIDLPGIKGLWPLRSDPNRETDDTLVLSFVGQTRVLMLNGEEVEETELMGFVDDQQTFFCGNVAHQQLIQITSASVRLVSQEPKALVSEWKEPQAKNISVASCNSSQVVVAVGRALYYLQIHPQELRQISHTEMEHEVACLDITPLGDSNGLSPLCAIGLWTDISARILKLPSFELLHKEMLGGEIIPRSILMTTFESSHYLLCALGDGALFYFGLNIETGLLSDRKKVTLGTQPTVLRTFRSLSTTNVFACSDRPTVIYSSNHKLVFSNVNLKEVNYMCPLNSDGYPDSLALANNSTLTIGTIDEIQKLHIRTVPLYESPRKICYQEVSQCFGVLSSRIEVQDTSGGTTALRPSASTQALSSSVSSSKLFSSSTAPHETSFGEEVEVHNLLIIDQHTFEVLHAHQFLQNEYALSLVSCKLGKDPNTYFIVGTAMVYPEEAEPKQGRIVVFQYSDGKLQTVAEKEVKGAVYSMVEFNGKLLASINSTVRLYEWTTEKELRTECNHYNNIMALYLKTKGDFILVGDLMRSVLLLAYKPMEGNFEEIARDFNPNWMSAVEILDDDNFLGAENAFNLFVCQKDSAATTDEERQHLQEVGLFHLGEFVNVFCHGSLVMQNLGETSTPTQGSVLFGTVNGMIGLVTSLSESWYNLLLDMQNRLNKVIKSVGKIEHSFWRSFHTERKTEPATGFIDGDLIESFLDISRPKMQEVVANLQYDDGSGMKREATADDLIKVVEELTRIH
Experimental: as §1, §2, §3, §4, §5, §6, §7, §8

[3] = target: T1, HiBiT-tagged IKZF1; experiment: IKZF1 protein degradation kinetics (IKZF1 HiBiT degradation assay, incubation 1, 2 or 4 hours); assay type: cell-based
Description: The following is a general method for testing compounds-induced degradation of HiBiT-tagged IKZF1 or SALL4 overexpressed in a human cell line, for example, the HT-1080 cell line (American Type Culture Collection (ATCC), catalog number CCL-121). The HT-1080 IKZF1 (or SALL4) HiBiT reporter cell line was engineered via lentiviral transduction to stably overexpress GSPT1 (Δ1-138)/G575N and HiBiT-tagged IKZF1 or SALL4. The HT-1080 IKZF1 (or SALL4) HiBiT reporter cell line was maintained in DMEM media supplemented with 10% fetal bovine serum, IX sodium pyruvate, 1× non-essential amino acids, IX glutamine, 100 U/ml penicillin, and 100 μg/mL streptomycin. The HT-1080 IKZF1 (or SALL4) HiBiT reporter cells were seeded into 384-well plates (Cat #3764, Corning) pre-spotted with DMSO or test compounds. Increasing concentrations of test compounds (ranging from 15.81 pM to 500 nM or from 0.3162 nM to 10 μM at a 3.162-fold increment) or DMSO were dispensed into an empty 384-well plate using an Echo 650 Acoustic Liquid Handler (Beckman Coulter). About 10,000 cells in complete DMEM cell culture media were seeded per well. Assay plates were incubated at 37° C. with 5% CO2 for hours, followed by the assessment of IKZF1 or SALL4 degradation using the Nano-Glo HiBiT Lytic Detection Reagent (Cat #N3050, Promega) according to the manufacturer's instruction. Luminescence was then measured with an EnVision plate reader (PerkinElmer) or a PHERAstar plate reader (BMG Labtech). All IKZF1 or SALL4 degradation curves were processed using Collaborative Drug Discovery Vault softwares. IKZF1 or SALL4 levels in compound-treated wells were normalized to that of DMSO control and expressed as Percent of Control (PoC, y). A four Parameter Logistic Model was used to determine the compound's EC50 and DC50, using the following equation: […]
The IKZF1 protein degradation kinetics of compounds 9-B and 9-A was evaluated using the IKZF1 HiBiT degradation assay as described above except that the incubation time was changed to 1, 2 or 4 hours.

[4] = tested on: MM.1S cells; experiment: MM.1S cell proliferation assay (CellTiter-Glo); assay type: cell-based; conditions: for IC50: Homo sapiens, MM1.S, read-out: MM.1S: IC50; for Ymin: lowest cell viability read normalized to DMSO control, MM.1S, 120 hours
Experimental: About 3,000 cells in 50 μL of culture medium were seeded per well. Assay plates were incubated at 37° C. with 5% CO2 for 120 hours. After that, 20 μL of the CellTiter-Glo Luminescent Cell Viability Assay Reagent (Cat #G7573, Promega) was added to each well and incubated at room temperature for 30 minutes. Luminescence was then measured with an EnVision plate reader (PerkinElmer) or a PHERAstar plate reader (BMG LABTECH). All percentage of cell growth inhibition curves were processed using Collaborative Drug Discovery Vault softwares. Cell viability reads in compound-treated wells were normalized to that of DMSO control and expressed as Percent of Control (PoC, y). A four Parameter Logistic Model was used to determine the compound's EC50 and DC50, using the following equation:
[formula] • wherein, • A=Ymin (lowest cell viability read normalized to DMSO control in response to compound treatment, as determined by curve fit) • B=Ymax (the maximum value, cell viability read in DMSO control) • C=EC50 half inhibitory concentration • D=Hill Slope • x=compound concentration
as §5
y=cell viability read normalized to DMSO control

[5] = Pharmacokinetic study in mice; assay type: in vivo; conditions: male CD1 mice
Experimental: Objective: The objective of this study was to determine the pharmacokinetics of test compound following a single intravenous (IV) bolus dose and a single oral (PO) administration in male CD1 mice by quantifying the concentrations of the test compound at different times in plasma using LC/MS/MS method.
Materials: Male CD1 mouse (20-30 g, 6-8 weeks, Zhejiang Vital River Laboratory Animal Technology Co., Ltd.).
The clear solution of the test article was injected into CD1 mice via tail vein (free access to food and water), or orally administrated into CD1 mice (free access to food and water). After administration, blood was collected from the dorsal metatarsal vein at 5 min (0.0833 h, IV only), 15 min (0.25 h), 30 min (0.5 h), 60 min (1 h), 2 h, 4 h, 6 h, 8 h and 24 h. Blood samples were placed in an anticoagulant tube with EDTA-K2 at 4° C., mixed adequately and centrifuged at 4000 g for 5 min to get the plasma. The plasma concentration was quantified by LC-MS/MS. The PK parameters were calculated using non-compartmental model by Phoenix WinNonlin 6.1 (Linear/log trapezoidal).

[6] = HT-1080, Table 1, maximum percentage of protein degradation
[7] = HT-1080, Table 2, all compounds tested on the same day
[8] = Table 1, performed once with technical duplicates, some compounds tested on different days
[9] = Table 2, all compounds tested on the same day
[10] = after 1 hour of compound incubation
[11] = antiproliferative, 120 hours incubation, CellTiter-Glo
[12] = mouse, Table 5, PO (10 mg/kg), plasma
[13] = mouse, Table 4, PO (10 mg/kg), plasma
[14] = Table 1, maximum percentage of protein degradation

T1 sequence (Q13422 whole entry): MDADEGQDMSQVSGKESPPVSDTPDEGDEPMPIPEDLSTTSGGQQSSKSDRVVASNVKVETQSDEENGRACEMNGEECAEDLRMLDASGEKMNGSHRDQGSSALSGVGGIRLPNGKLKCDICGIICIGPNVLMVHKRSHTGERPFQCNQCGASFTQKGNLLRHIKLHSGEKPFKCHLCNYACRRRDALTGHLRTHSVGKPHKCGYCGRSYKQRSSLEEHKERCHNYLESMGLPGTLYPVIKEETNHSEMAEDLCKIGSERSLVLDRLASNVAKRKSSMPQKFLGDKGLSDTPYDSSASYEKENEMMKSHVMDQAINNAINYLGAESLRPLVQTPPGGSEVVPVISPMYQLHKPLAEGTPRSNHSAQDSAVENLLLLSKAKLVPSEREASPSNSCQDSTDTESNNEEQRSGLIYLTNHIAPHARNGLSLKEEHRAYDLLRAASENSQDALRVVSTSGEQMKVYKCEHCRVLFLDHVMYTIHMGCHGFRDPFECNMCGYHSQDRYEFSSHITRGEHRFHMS
T1 sequence (Q96SW2 whole entry): as the sequence (Q96SW2 whole entry) above
T1 sequence (Q16531 whole entry partner): as the sequence (Q16531 whole entry partner) above

N#Cc1ccc(N2CCN(Cc3ccc(Cc4ccc5c6c(cc(F)cc46)C(=O)N5[C@H]4CCC(=O)NC4=O)cc3)CC2)c(F)c1 (single isomer, unassigned) [Compound 9-B]
Dmax [1, 6]: 90.9%
Dmax [1, 7]: 93.8%
DC50 [1, 8]: 134 pM
DC50 [1, 9]: 102 pM
Dmax [2, 6]: 59.5%
Dmax [2, 7]: 59.4%
DC50 [2, 8]: 104000 pM
DC50 [2, 9]: 102000 pM
DC50 [3, 10]: ~400 pM
Dmax [3, 10]: ~77%
DC50 ([3]; after 4 hours of incubation): < 200 pM
Dmax ([3]; after 4 hours of incubation): 92%
IC50 [4, 11]: 22 pM
Ymin [4]: 5.6 (n = 3) %
AUC(0-t) [5, 12]: 73600 ng·h/mL
Cmax [5, 12]: 4390 ng/mL
half-life [5, 12]: 8.3 h

N#Cc1ccc(N2CCN(Cc3ccc(Cc4ccc5c6c(cc(F)cc46)C(=O)N5C4CCC(=O)NC4=O)cc3)CC2)c(F)c1 (stereo not drawn) [Compound 9]
Dmax [1, 6]: 91.6%
DC50 [1, 8]: 74 pM
Dmax [2, 6]: 58.1%
DC50 [2, 8]: 32000 pM
IC50 [4, 11]: 40 pM
Ymin [4]: 4.0 (n = 2) %
F ([5]; Table 4, PO (10 mg/kg) vs IV (2 mg/kg)): 27.1%
AUC(0-t) ([5]; mouse, IV (2 mg/kg), plasma): 17200 ng·h/mL
clearance ([5]; mouse, IV (2 mg/kg), plasma): 1.57 mL/min/kg
half-life ([5]; mouse, IV (2 mg/kg), plasma): 10.2 h
Vd ([5]; mouse, IV (2 mg/kg), plasma, read-out: Vss): 1.32 L/kg
AUC(0-t) [5, 13]: 23300 ng·h/mL
Cmax [5, 13]: 1460 ng/mL

Nc1cccc2c1C(=O)N(C1CCC(=O)NC1=O)C2=O (stereo not drawn) [Pomalidomide]
Dmax [1, 14]: 79.5%
Dmax [2, 14]: 69.7%
IC50 ([4]; 120 h): > 30000 pM

— patent publication US20240360150A1, “ISOINDOLINONE COMPOUNDS AND USES THEREOF” (HANGZHOU GLUBIO PHARMACEUTICAL CO. LTD., priority 2021, published 2024)
